Source: US20250332178A1, “METHODS OF TREATING MYCOBACTERIAL INFECTIONS USING TETRACYCLINE COMPOUNDS” (priority 2018, published 2025)
In brackets after ≈: the same amount, converted by molar mass. Like-named read-outs stand apart in the source and are kept apart here.

Tests used:
[1] = test system: Bacille Calmette Guerin (BCG); format: cell-based, Mycobacterium bovis; details: disk: 30 μg of linezolid
[2] = test system: rapid-growing mycobacteria (RGM) isolates; test: MIC (CLSI broth dilution), all RGM isolates; format: cell-based, nontuberculous mycobacteria; details: all 50 RGM isolates
M. abscessus complex = test: MIC (CLSI broth dilution), RGM isolates; format: cell-based; details: Mycobacteroides abscessus, read-out: MIC
M. chelonae = test: MIC (CLSI broth dilution), RGM isolates; format: cell-based; details: Mycobacteroides chelonae, read-out: MIC
M. fortuitum group = test: MIC (CLSI broth dilution), RGM isolates; format: cell-based; details: Mycolicibacterium fortuitum, read-out: MIC
M. immunogenum group = test: MIC (CLSI broth dilution), RGM isolates; format: cell-based; details: M. immunogenum, read-out: MIC
M. mucogenium group = test: MIC (CLSI broth dilution), RGM isolates; format: cell-based; details: read-out: MIC
M. smegmatis group = test: MIC (CLSI broth dilution), RGM isolates; format: cell-based; details: Mycolicibacterium smegmatis, read-out: MIC
[3] = test system: slow-growing NTM isolates; test: MIC (CLSI broth dilution), all slow-growing NTM isolates; format: cell-based, nontuberculous mycobacteria; details: all slow-growing NTM isolates
M. avium = test: MIC (CLSI broth dilution), slow-growing NTM isolates; format: cell-based; details: Mycobacterium avium, read-out: MIC
M. chimaera = test: as above; format: cell-based; details: read-out: MIC
M. intracellulare = test: as above; format: cell-based; details: Mycobacterium intracellulare, read-out: MIC
M. arupense = test: as above; format: cell-based; details: isolate 11, Other; read-out: MIC
M. simiae = test: as above; format: cell-based; details: read-out: MIC

Compound: CC(=O)NC[C@H]1CN(c2ccc(N3CCOCC3)c(F)c2)C(=O)O1 [linezolid]
- Results/Observations (growth) [1]: No growth on plate
- MIC50 ([2]; read-out: MIC50): 4 µg/mL (≈ 11.9 µM)
- MIC90 ([2]; read-out: MIC90): 32 µg/mL (≈ 94.9 µM)
- MIC (M. abscessus complex; isolate 1, M. abscessus complex, erm gene type MAB30): 16 µg/mL (≈ 47.4 µM)
- MIC (M. abscessus complex; isolate 2, M. abscessus complex, erm gene type MAB30): 16 µg/mL (≈ 47.4 µM)
- MIC (M. abscessus complex; isolate 3, M. abscessus complex, erm gene type MAB30): 32 µg/mL (≈ 94.9 µM)
- MIC (M. abscessus complex; isolate 4, M. abscessus complex, erm gene type massiliense): 16 µg/mL (≈ 47.4 µM)
- MIC (M. abscessus complex; isolate 5, M. abscessus complex, erm gene type massiliense/subsp. abs hybrid): 4 µg/mL (≈ 11.9 µM)
- MIC (M. abscessus complex; isolate 6, M. abscessus complex, erm gene type Type 1 abscessus): 32 µg/mL (≈ 94.9 µM)
- MIC (M. abscessus complex; isolate 7, M. abscessus complex, erm gene type Type 1 abscessus): 16 µg/mL (≈ 47.4 µM)
- MIC (M. abscessus complex; isolate 8, M. abscessus complex, erm gene type Type 1 abscessus): 16 µg/mL (≈ 47.4 µM)
- MIC (M. abscessus complex; isolate 9, M. abscessus complex, erm gene type Type 1 abscessus): 32 µg/mL (≈ 94.9 µM)
- MIC (M. abscessus complex; isolate 10, M. abscessus complex, erm gene type Type 1 abscessus): 16 µg/mL (≈ 47.4 µM)
- MIC (M. abscessus complex; isolate 11, M. abscessus complex, erm gene type Type 6 abscessus): 8 µg/mL (≈ 23.7 µM)
- MIC (M. abscessus complex; isolate 12, M. abscessus complex, erm gene type Type 6 abscessus): 8 µg/mL (≈ 23.7 µM)
- MIC (M. abscessus complex; isolate 13, M. abscessus complex, erm gene type Type 6 abscessus): 16 µg/mL (≈ 47.4 µM)
- MIC (M. abscessus complex; isolate 14, M. abscessus complex, erm gene type Type 6 abscessus): ≤ 2 µg/mL
- MIC (M. abscessus complex; isolate 15, M. abscessus complex, erm gene type Type 7 abscessus): 16 µg/mL (≈ 47.4 µM)
- MIC (M. abscessus complex; isolate 16, M. abscessus complex, erm gene type Type 7 abscessus): ≤ 2 µg/mL
- MIC (M. abscessus complex; isolate 17, M. abscessus complex, erm gene type Type 8 abscessus): 16 µg/mL (≈ 47.4 µM)
- MIC (M. chelonae; isolate 18, M. chelonae): 16 µg/mL (≈ 47.4 µM)
- MIC (M. chelonae; isolate 19, M. chelonae): 8 µg/mL (≈ 23.7 µM)
- MIC (M. chelonae; isolate 20, M. chelonae): 4 µg/mL (≈ 11.9 µM)
- MIC (M. chelonae; isolate 21, M. chelonae): 16 µg/mL (≈ 47.4 µM)
- MIC (M. chelonae; isolate 22, M. chelonae): 16 µg/mL (≈ 47.4 µM)
- MIC (M. fortuitum group; isolate 23, M. fortuitum group, M. fortuitum): ≤ 2 µg/mL
- MIC (M. fortuitum group; isolate 24, M. fortuitum group, M. fortuitum): 4 µg/mL (≈ 11.9 µM)
- MIC (M. fortuitum group; isolate 25, M. fortuitum group, M. fortuitum): 4 µg/mL (≈ 11.9 µM)
- MIC (M. fortuitum group; isolate 26, M. fortuitum group, M. porcinum): ≤ 2 µg/mL
- MIC (M. fortuitum group; isolate 27, M. fortuitum group, M. porcinum): 4 µg/mL (≈ 11.9 µM)
- MIC (M. fortuitum group; isolate 28, M. fortuitum group, M. porcinum/M. boenickei): ≤ 2 µg/mL
- MIC (M. fortuitum group; isolate 29, M. fortuitum group, M. porcinum/M. boenickei): 4 µg/mL (≈ 11.9 µM)
- MIC (M. fortuitum group; isolate 30, M. fortuitum group, M. porcinum/M. boenickei): ≤ 2 µg/mL
- MIC (M. fortuitum group; isolate 31, M. fortuitum group, M. senegalense): ≤ 2 µg/mL
- MIC (M. fortuitum group; isolate 32, M. fortuitum group, M. senegalense): ≤ 2 µg/mL
- MIC (M. fortuitum group; isolate 33, M. fortuitum group, M. senegalense): ≤ 2 µg/mL
- MIC (M. fortuitum group; isolate 34, M. fortuitum group, M. senegalense): ≤ 2 µg/mL
- MIC (M. immunogenum group; isolate 35, M. immunogenum group): 32 µg/mL (≈ 94.9 µM)
- MIC (M. immunogenum group; isolate 36, M. immunogenum group): 8 µg/mL (≈ 23.7 µM)
- MIC (M. immunogenum group; isolate 37, M. immunogenum group): 32 µg/mL (≈ 94.9 µM)
- MIC (M. immunogenum group; isolate 38, M. immunogenum group): 32 µg/mL (≈ 94.9 µM)
- MIC (M. mucogenium group; isolate 39, M. mucogenicum group, M. mucogenicum): ≤ 2 µg/mL
- MIC (M. mucogenium group; isolate 40, M. mucogenicum group, M. mucogenicum): ≤ 2 µg/mL
- MIC (M. mucogenium group; isolate 41, M. mucogenicum group, M. mucogenicum): ≤ 2 µg/mL
- MIC (M. mucogenium group; isolate 42, M. mucogenicum group, M. mucogenicum): ≤ 2 µg/mL
- MIC (M. mucogenium group; isolate 43, M. mucogenicum group, M. phocaicum): ≤ 2 µg/mL
- MIC (M. mucogenium group; isolate 44, M. mucogenicum group, M. phocaicum): ≤ 2 µg/mL
- MIC (M. mucogenium group; isolate 45, M. mucogenicum group, M. phocaicum): ≤ 2 µg/mL
- MIC (M. mucogenium group; isolate 46, M. mucogenicum group, M. phocaicum): ≤ 2 µg/mL
- MIC (M. mucogenium group; isolate 47, M. mucogenicum group, M. phocaicum): 4 µg/mL (≈ 11.9 µM)
- MIC (M. mucogenium group; isolate 48, M. mucogenicum group, M. phocaicum): ≤ 2 µg/mL
- MIC (M. smegmatis group; isolate 49, M. smegmatis group, M. goodii): ≤ 2 µg/mL
- MIC (M. smegmatis group; isolate 50, M. smegmatis group, M. wolinskyi): 4 µg/mL (≈ 11.9 µM)
- MIC50 ([3]; read-out: MIC50): 32 µg/mL (≈ 94.9 µM)
- MIC90 ([3]; read-out: MIC90): > 32 µg/mL
- MIC (M. avium; isolate 1, MAC): 32 µg/mL (≈ 94.9 µM)
- MIC (M. avium; isolate 2, MAC): 32 µg/mL (≈ 94.9 µM)
- MIC (M. avium; isolate 3, MAC): > 32 µg/mL
- MIC (M. chimaera; isolate 4, MAC): 16 µg/mL (≈ 47.4 µM)
- MIC (M. chimaera; isolate 5, MAC): 32 µg/mL (≈ 94.9 µM)
- MIC (M. intracellulare; isolate 6, MAC): 32 µg/mL (≈ 94.9 µM)
- MIC (M. intracellulare; isolate 7, MAC): 16 µg/mL (≈ 47.4 µM)
- MIC (M. intracellulare; isolate 8, MAC): 32 µg/mL (≈ 94.9 µM)
- MIC (M. intracellulare; isolate 9, MAC): 32 µg/mL (≈ 94.9 µM)
- MIC (M. intracellulare; isolate 10, MAC): > 32 µg/mL
- MIC (M. arupense): 32 µg/mL (≈ 94.9 µM)
- MIC (M. simiae; isolate 13, Other): > 32 µg/mL
- MIC (M. simiae; isolate 14, Other): 32 µg/mL (≈ 94.9 µM)
- MIC (M. simiae; isolate 15, Other): > 32 µg/mL
